Values of other authors in patent EP1017727B1, “COMPOSITION AND PHARMACEUTICAL PREPARATION CONTAINING SAME FOR THE TREATMENT OF HERPES AND RELATED VIRAL INFECTIONS” (priority 1997, dated 1999).
Values after ≈ are worked out from the molar mass of the structure shown.

Test system: HSV-1

| Compound | IC50 against HSV-1 |
| --- | --- |
| O=Cc1cc(O)c(O)c(O)c1 [gallic aldehyde] | 12.5 µg/mL (≈ 81.1 µM) |
| geponin | 25 µg/mL |
